Data set [1] has as its system Mus musculus. In words: Antagonist activity at central serotonergic 5-HT2A receptor in Swiss albino Mus musculus (mouse) assessed as inhibition of quipazine meleate-induced head twiches at 10 mg/kg, ip administered 1 hr prior to quipazine meleate challenge measured after 30 to 40 min relative to vehicle-treated control. Particulars: route intraperitoneal. Format: functional.

The subject of data set [2] is Mus musculus. In words: In vivo inhibition of 5-HT2A receptor in Swiss albino Mus musculus (mouse) at 10 mg/kg, ip relative to vehicle-treated control. Format: functional. Conditions: route intraperitoneal.
Data set [3] deals with 5-hydroxytryptamine receptor 2A (Rattus norvegicus) (UniProt P14842). In words: Displacement of [3H]ketanserin from 5-HT2A receptor in Rattus norvegicus (rat) cortex membrane homogenates up to 1 uM after 90 min by liquid scintillation counting analysis. (Displacement assays read how much labelled ligand stays bound in the presence of the test substance.)
Data set [4] relates to Mus musculus. In words: Antagonist activity at mesolimbic dopaminergic D2 receptor in Swiss albino Mus musculus (mouse) assessed as inhibition of apomorphine-induced cage climbing behavior at 10 mg/kg, ip administered 1 hr prior to apomorphine challenge measured after 10 min relative to vehicle-treated control. Format: functional. Particulars: route intraperitoneal.
Data set [5] has as its system Mus musculus. In words: In vivo inhibition of dopaminergic D2 receptor in Swiss albino Mus musculus (mouse) at 10 mg/kg, ip relative to vehicle-treated control. The class given is functional. Particulars: route intraperitoneal.
Data set [6] has as its system Mus musculus. In words: Antagonist activity at nigrostriatal dopaminergic D2 receptor in Swiss albino Mus musculus (mouse) assessed as maximum average cataleptic time at 10 mg/kg, ip after 1 to 5 hr relative to vehicle-treated control. The class given is organism-based. Further details: dose 10 mg/kg, route intraperitoneal. Conditions: in vivo.
Data set [7] relates to Mus musculus. In words: Antagonist activity at mesolimbic dopaminergic D2 receptor in Swiss albino Mus musculus (mouse) assessed as inhibition of apomorphine-induced cage climbing behavior at 10 mg/kg, ip administered 1 hr prior to apomorphine challenge measured after 30 min relative to vehicle-treated control. The class given is functional. Particulars: route intraperitoneal.

The test system of data set [8] is Mus musculus. As to the kind of experiment: Antagonist activity at mesolimbic dopaminergic D2 receptor in Swiss albino Mus musculus (mouse) assessed as inhibition of apomorphine-induced cage climbing behavior at 10 mg/kg, ip administered 1 hr prior to apomorphine challenge measured after 20 min relative to vehicle-treated control. The class given is functional. Conditions: route intraperitoneal.

For data set [9], the system named is Mus musculus. As to the kind of experiment: Selectivity ratio of inhibition of 5-HT2A receptor in Swiss albino Mus musculus (mouse) to inhibition of dopaminergic D2 receptor in Swiss albino Mus musculus (mouse) at 10 mg/kg, ip. Format: functional. Particulars: route intraperitoneal.
In data set [10] the target is D(2) dopamine receptor (Rattus norvegicus) (UniProt P61169). In words: Displacement of [3H]spiperone from dopaminergic D2 receptor in Rattus norvegicus (rat) straitum membrane homogenates up to 1 uM after 60 min by liquid scintillation counting analysis.
The target is the same in data set [11]. In words: Displacement of [3H]spiperone from D2 receptor in Rattus norvegicus (rat) straitum membrane homogenates at 100 uM after 60 min by liquid scintillation counting analysis.
Data set [12] concerns the target 5-hydroxytryptamine receptor 2A (Rattus norvegicus) (UniProt P14842). In words: Displacement of [3H]ketanserin from 5-HT2A receptor in Rattus norvegicus (rat) cortex membrane homogenates at 10 uM after 90 min by liquid scintillation counting analysis.

Molecules are shown by their SMILES. The source made the active and inactive calls. No cut-off for these calls is given here.

Sequence of D(2) dopamine receptor (Rattus norvegicus) (P61169 whole entry): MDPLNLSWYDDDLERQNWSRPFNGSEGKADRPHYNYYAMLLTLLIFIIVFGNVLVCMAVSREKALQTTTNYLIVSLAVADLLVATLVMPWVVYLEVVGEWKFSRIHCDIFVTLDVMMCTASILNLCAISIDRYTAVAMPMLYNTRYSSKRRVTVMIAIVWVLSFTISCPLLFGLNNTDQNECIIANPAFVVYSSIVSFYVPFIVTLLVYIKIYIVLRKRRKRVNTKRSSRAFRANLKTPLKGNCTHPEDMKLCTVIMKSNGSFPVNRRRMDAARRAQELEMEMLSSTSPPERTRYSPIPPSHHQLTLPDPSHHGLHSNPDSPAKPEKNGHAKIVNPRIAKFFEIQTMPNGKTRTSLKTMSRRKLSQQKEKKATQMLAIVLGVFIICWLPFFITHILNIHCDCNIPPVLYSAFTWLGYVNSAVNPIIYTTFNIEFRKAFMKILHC
Sequence of 5-hydroxytryptamine receptor 2A (Rattus norvegicus) (P14842 whole entry): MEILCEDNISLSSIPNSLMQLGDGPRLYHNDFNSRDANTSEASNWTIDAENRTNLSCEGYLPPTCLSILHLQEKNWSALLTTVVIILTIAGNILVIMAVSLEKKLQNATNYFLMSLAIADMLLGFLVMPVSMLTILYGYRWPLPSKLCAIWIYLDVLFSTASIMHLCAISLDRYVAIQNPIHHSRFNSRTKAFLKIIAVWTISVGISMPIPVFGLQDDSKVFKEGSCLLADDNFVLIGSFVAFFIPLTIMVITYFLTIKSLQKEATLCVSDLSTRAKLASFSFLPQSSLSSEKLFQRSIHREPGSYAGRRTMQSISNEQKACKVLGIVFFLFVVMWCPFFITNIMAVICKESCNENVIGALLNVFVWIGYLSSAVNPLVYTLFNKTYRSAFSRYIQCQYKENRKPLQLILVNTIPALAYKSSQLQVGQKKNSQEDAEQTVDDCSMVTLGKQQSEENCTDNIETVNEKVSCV

One may read the inhibition in vivo as how much of the control response was suppressed. What is called inhibition is the percentage by which the read-out fell short of the control. In the case of `Cc1nc(-c2ccc(CCN3CCN(c4cnc5ccccc5n4)CC3)cc2)c(C)s1`, the inhibition in vivo at 10 mg/kg came to 32% in [1]; 32% in [2]; 25% in data set [4]; 70% in data set [7]; 50% in data set [8]. In addition, the inhibition entry in [3] and in [10] was “inactive” each time. The molecule further returned an Imax in [5] of 70%. Moreover, the Time in [6] was found to be 9.32 s. For the same molecule, the Selectivity ratio in data set [9] came to 0.4571.

Take `Oc1nc(-c2ccc(CCN3CCN(c4nc5ccccc5nc4Cl)CC3)cc2)cs1`: the inhibition in vivo at 10 mg/kg in data set [1] worked out at 58%; in data set [2], 58%; in [4], 60%; in data set [7], 50%; in [8] it was 60%. Besides, the inhibition result in data set [3] and in data set [10] was “inactive” each time. Moreover, the inhibition in data set [11] and in [12] was 0% throughout. In data set [5], this molecule had an Imax of 60%. Moreover, in data set [6], the Time is reported as 28.25 s. In addition, the Selectivity ratio in data set [9] worked out at 0.9667.

As for `CNc1nc(-c2ccc(CCN3CCN(c4nc5ccccc5nc4Cl)CC3)cc2)c(C)s1`, the inhibition in vivo at 10 mg/kg in data set [1] is 81%; in [2] it was 81%; in data set [4], 95%; in [7], 70%; in [8], 95%. Besides, the inhibition result in data set [3] and in [10] was “inactive” in each case. Besides, the inhibition came out at 0% in data set [11] and 31% in [12]. This molecule came in with an Imax in data set [5] of 95%. Also, the Time in [6] is on record as 8.12 s. Also, the Selectivity ratio in [9] is recorded as 0.8526.

Turning to `COc1nc2ccccc2nc1N1CCN(CCc2ccc(-c3csc(O)n3)cc2)CC1`, the inhibition in vivo at 10 mg/kg in data set [1] was 67%; in [2], 67%; in data set [4], 65%; in [7], 60%; in data set [8] it was 60%. Besides, the inhibition entry in data set [3] and in data set [10] was “inactive” in each case. Further, the results for the inhibition in data set [11] and in data set [12] were 0% and 28%, respectively. Besides, in data set [5], the Imax stood at 65%. Also, the Time in data set [6] was 7.9 s. Moreover, the Selectivity ratio in data set [9] was 1.031.

Turning to `COc1nc2ccccc2nc1N1CCN(CCc2ccc(-c3nc(N)sc3C)cc2)CC1`, the inhibition in vivo at 10 mg/kg is 60% in data set [1]; 60% in [2]; 65% in [4]; 65% in data set [7]; 80% in [8]. The inhibition entry in data set [3] and in [10] was “inactive” each time. Besides, the Imax in data set [5] was 80%. Also, in data set [6], the Time was found to be 10.78 s. The Selectivity ratio in data set [9] came to 0.75.

Take `Cc1nc(-c2ccc(CCN3CCN(c4nc5ccccc5nc4Cl)CC3)cc2)cs1`: the inhibition in vivo at 10 mg/kg amounted to 62% in data set [1]; 62% in [2]; 80% in [4]; 75% in [7]; 65% in data set [8]. The inhibition entry in [3] and in [10] was “inactive” in each case. Also, the inhibition turned out to be 0% in data set [11] and 30% in data set [12]. The same molecule returned an Imax in [5] of 80%. Further, the Time in data set [6] stood at 3.25 s. Also, the Selectivity ratio in data set [9] worked out at 0.775.

In the case of `CNc1nc(-c2ccc(CCN3CCN(c4cnc5ccccc5n4)CC3)cc2)cs1`, the inhibition in vivo at 10 mg/kg in data set [1] was found to be 36%; in data set [2], 36%; in data set [4] it was 25%; in [7], 60%; in [8], 50%. The inhibition entry in [3] and in data set [10] was “inactive” in each case. Also, the inhibition in data set [11] worked out at 0%; in data set [12], 57%. In data set [5], this molecule registered an Imax of 60%. Further, the Time in data set [6] worked out at 9.32 s. Also, in data set [9], the Selectivity ratio came to 0.6.

Consider `CNc1nc(-c2ccc(CCN3CCN(c4nc5ccccc5nc4Cl)CC3)cc2)cs1`, for which the inhibition in vivo at 10 mg/kg in data set [1] worked out at 41%; in data set [2], 41%; in data set [4], 60%; in data set [7], 80%; in [8] it was 80%. In addition, the inhibition entry in data set [3] and in [10] was “inactive” each time. For the same molecule, the figures for the inhibition in [11] and in data set [12] were 0% and 14%, respectively. The Imax in [5] worked out at 80%. The Time in data set [6] was determined as 3.96 s. Further, in [9], the Selectivity ratio was found to be 0.5125.

For the molecule `COc1nc2ccccc2nc1N1CCN(CCc2ccc(-c3nc(C)sc3C)cc2)CC1`, the inhibition in vivo at 10 mg/kg was 65% in [1]; 65% in [2]; 85% in [4]; 65% in [7]; 70% in [8]. Besides, the inhibition entry in data set [3] and in [10] was “inactive” each time. Further, the Imax in data set [5] is on record as 85%. Moreover, the Time in data set [6] is 11.25 s. Besides, the Selectivity ratio in data set [9] is 0.7647.

On to `Cc1nc(-c2ccc(CCN3CCN(c4nc5ccccc5nc4Cl)CC3)cc2)c(C)s1`, for which the inhibition in vivo at 10 mg/kg worked out at 51% in data set [1]; 51% in [2]; 60% in [4]; 80% in [7]; 60% in [8]. For the same molecule, the inhibition entry in data set [3] and in [10] was “inactive” throughout. For the same molecule, the inhibition in data set [11] worked out at 0%; in data set [12], 31%. The Imax in data set [5] is given as 80%. Moreover, the Time in data set [6] is reported as 9.25 s. Further, the Selectivity ratio in data set [9] is recorded as 0.6375.

Regarding `Nc1nc(-c2ccc(CCN3CCN(c4nc5ccccc5nc4Cl)CC3)cc2)cs1`, the inhibition in vivo at 10 mg/kg worked out at 79% in data set [1]; 79% in [2]; 65% in [4]; 70% in data set [7]; 60% in data set [8]. The inhibition entry in [3] and in [10] was “inactive” throughout. Moreover, the inhibition in data set [11] came to 0%; in [12], 4%. The Imax in data set [5] worked out at 70%. Also, the Time in data set [6] was determined as 18.24 s. In addition, the Selectivity ratio in data set [9] is 1.129.

For the molecule `CNc1nc(-c2ccc(CCN3CCN(c4nc5ccccc5nc4OC)CC3)cc2)c(C)s1`, the inhibition in vivo at 10 mg/kg is 80% in data set [1]; 80% in data set [2]; 60% in data set [4]; 70% in data set [7]; 50% in data set [8]. The inhibition entry in data set [3] and in data set [10] was “inactive” throughout. The same molecule gave an Imax in [5] of 70%. Moreover, the Time in [6] amounted to 3.12 s. In addition, the Selectivity ratio in [9] stood at 1.143.

For the molecule `Oc1nc(-c2ccc(CCN3CCN(c4cnc5ccccc5n4)CC3)cc2)cs1`, the inhibition in vivo at 10 mg/kg amounted to 80% in data set [1]; 80% in data set [2]; 60% in data set [4]; 65% in [7]; 65% in data set [8]. For the same molecule, the inhibition entry in data set [3] and in [10] was “inactive” in each case. The results for the inhibition in data set [11] and in [12] were 0% and 22%, respectively. Also, the Imax in data set [5] is reported as 65%. For the same molecule, the Time in data set [6] was found to be 3.19 s. For the same molecule, the Selectivity ratio in data set [9] is reported as 1.231.

For `CNc1nc(-c2ccc(CCN3CCN(c4cnc5ccccc5n4)CC3)cc2)c(C)s1`, the inhibition in vivo at 10 mg/kg stood at 55% in data set [1]; 55% in [2]; 60% in data set [4]; 65% in data set [7]; 75% in data set [8]. In addition, the inhibition result in [3] and in [10] was “inactive” in each case. This molecule displayed an Imax in [5] of 75%. In data set [6], the Time was 3.88 s. In data set [9], the Selectivity ratio was determined as 0.7333.

For the origin of these results see ChEMBL document CHEMBL3044879, “Design, synthesis, and preliminary in vitro and in vivo pharmacological evaluation of 4-{4-[2-(4-(2-substitutedquinoxalin-3-yl)piperazin-1-yl)ethyl]phenyl}thiazoles as atypical antipsychotic agents” (Med Chem Res, 2013).
